In patent US20060165630A1, “Use of amide or ester of sugar and of fatty acid, for treating and/or preventing dry skin” (priority 2002, published 2006):

Assays:
[1] = Peroxidizability in the air, proportion of intact molecules by HPLC; assay type: physicochemical; details: storage for two months, at room temperature (about 20 to 25° C.), HPLC with UV detection (210 nm)
Protocol: The purpose of this study is to evaluate the peroxidizability of various molecules or mixtures of molecules by carrying out various tests. These tests consist of measuring the proportion of molecules still intact after storage for two months, in air, at room temperature (about 20 to 25° C.). The loss of the starting product is monitored by HPLC with UV detection (210 nm).

SZ 95 sebocytes = test: Cytotoxicity on sebocytes, production of LDH in the basal medium; assay type: cell-based; details: for Variation, LDH/control: 100 μM
Protocol: The tolerance of the glucose ester at 6 of linoleic acid was determined by measuring the cytotoxicity of the product on SZ 95 sebocytes, with linoleic acid alone as control.
The test conditions are identical to those examined in example 1. Cytotoxicity is measured by the production of LDH in the basal medium, according to the method described in Thomas J P et al.; Lethal damage to endothelial cells by oxidized low density lipoprotein: role of selenoperoxidases in cytoprotection against lipid hydroperoxide and iron mediated reactions. Journal of lipid research 34: 479-490. 1993.

[2] = Stability in solution, hydrolysis of the esters by HPLC; assay type: physicochemical; details: hydrolysis of glucopyranose linoleate; 0.1 wt. % in ethanol/isopropanol/water (64/16/20 by volume), 45° C., 2 months
Protocol: The stability of the compounds according to the invention was evaluated (measurement of hydrolysis of the esters).
Solutions were prepared at 0.1 wt. % of the compounds in ethanol/isopropanol/water mixture (64/16/20 by volume). These solutions were left in a thermostat at 45° C., for 2 months.
Then the percentage hydrolysis of glucopyranose linoleate was determined by HPLC.

[3] = tested on: human sebocytes immortalized in culture, derived from the SZ95 line; test: Quantity of lipids produced by sebocytes (Nile Red fluorescence); assay type: cell-based; details: 100 μM, 2 days of treatment, total lipids, SZ95 sebocytes at confluence
Protocol: The test compounds were evaluated on a model of human sebocytes immortalized in culture, derived from the SZ95 line described in Zouboulis, C. C. et al., Establishment and Characterization of an Immortalized Human Sebaceous Gland Cell Line, J. Invest. Dermatol., 113, 1011-1020 (1999).
The test consists of measuring the quantity of lipids produced by the sebocytes of the cell line (at confluence), with or without active agents present, diluted in DMSO, in such a way that the final amount of DMSO in the basal medium is 0.1%. After 2 days of treatment, the adhering cells are treated with Nile Red (1 μg/ml). The lipids content is then quantified by measuring the fluorescence of the stain (two excitation/emission pairs: 485-540 nm for neutral lipids and 540-620 nm for non-neutral lipids). The results are given for total lipids (combining both measurements).
The test is carried out in decaplicate (assayed products and control) in a 96-well plate and renewed 3 times.

**Q.** Which results are given for `CCCCCC=CCC=CCCCCCCCC(=O)OC[C@H]1OC(O)[C@H](O)[C@@H](O)[C@@H]1O` (stereo partly drawn) [6-O-octadeca-9,12-dienoyl-D-glucopyranose]?
**A.** intact molecules [1]: 30%; Variation, LDH/control (SZ 95 sebocytes; SZ 95 sebocytes, LDH in the basal medium): Not significant; cytotoxicity with respect to sebocytes (in words) (SZ 95 sebocytes; SZ 95 sebocytes): No cytotoxicity was found; % hydrolysis [2]: 7%

**Q.** For `C[C@]12CC[C@H](O)CC1=CC[C@@H]1[C@@H]2CC[C@]2(C)C(=O)CC[C@@H]12` [DHEA, dehydroepiandrosterone, reference compound], which “Variation, lipid/CONTROL” value [3] is on record?
**A.** The value was “+80%”.

**Q.** For `CCCCC/C=C\C/C=C\CCCCCCCC(=O)OC` [methyl linoleate], which intact molecules [1] is on record?
**A.** Its intact molecules is “no longer contain intact molecules”.

**Q.** Which “% hydrolysis” value [2] does the source give for `CCCCCC=CCC=CCCCCCCCC(=O)O[C@H]1[C@H](O)[C@@H](CO)OC(O)[C@@H]1O` (stereo partly drawn) [3-O-octadeca-9,12-dienoyl-D-glucopyranose] here?
**A.** The value was 30%.

**Q.** With `CCCCCC=CCC=CCCCCCCCC(=O)NC1C(O)OC(CO)C(O)C1O` (stereo not shown) as the compound, how does the “Variation, lipid/CONTROL” value [3] read?
**A.** Its value is “+40%”.

**Q.** With `CCCCCC=CCC=CCCCCCCCC(=O)O` [Linoleic acid, octadeca-9,12-dienoic acid, reference compound] as the compound, how does the intact molecules [1] read?
**A.** Its intact molecules is “no longer contain intact molecules”.

**Q.** And the “Variation, LDH/control” value (SZ 95 sebocytes; human)?
**A.** Its value is “+20%”.
